Like-named read-outs stand apart in the source and are kept apart here.
How the values were obtained:
CB1-receptor [1] = molecular target: CB1-receptor (UniProt P20272); assay: binding of the pyrazoline compounds to CB1-receptors (Pharmacological Methods, Part I); set-up: IC50; species or system human or rat
Experimental: I. In-vitro Determination of Affinity to CB1/CB2-Receptors
The in-vitro determination of the affinity of the inventive 4-substituted pyrazoline compounds to CB1/CB2-Rezeptors is carried out as described in the publication of Ruth A. Ross, Heather C. Brockie et al., “Agonist-inverse agonist characterisation at CB1 and CB2 cannabinoid receptors of L-759633, L759656 and AM630”, British Journal of Pharmacology, 126, 665-672, (1999), whereby the transfected human CB1 and CB2 receptors of Receptor Biology, Inc. are used. The radioligand used for both receptors is [^3H]-CP55940. The respective parts of the description is hereby incorporated by reference and forms part of the present disclosure.
Rat Cerebellum CB1 Binding
Binding affinity to CB1 receptor was evaluated according to a modification of the method described by Govaerts et al., Eur J Pharmac Sci 23, 233-243 (2004). The respective parts of the description is hereby incorporated by reference and forms part of the present disclosure.
Briefly, cerebellum from male wistar rats (250-300 g) were carefully dissected on ice and homogenates were prepared with Potter-Helveheim in a cold 50 mM Tris-HCl solution containing 5 mM MgCl2, 1 mM EDTA and 0.25 M sucrose, pH 7.4. The suspension was centrifuged at […] for 5 minutes. The supernatants were collected and centrifuged 50,000×g for 15 minutes. The resulting pellets were then resuspended in Tris-HCl buffer without sucrose, homogenized and incubated for 15 min at 37° C. in an orbital shaker bath and centrifuged again at 50,000×g for 15 min. Pellets were weighted, resuspended in Tris-HCl buffer without sucrose, homogenized with Ultraturrax at 13,500 rpm for 3×5 seconds and alicuoted in 0.9 ml volumes in Eppendorf tubes. Alicuotes were centrifuged at 20,800×g for 5 minutes, supernatants discarded and pellets were frozen at −80° C. until use. Total protein concentration was determined using the Bio-Rad Lowry method based kit. Competitive binding experiments were performed in presence of 1 nM [^3H]-CP 55,940 in siliconized glass tubes containing 100 μg protein/tube resuspended in 1 ml final volume of 50 mM Tris-HCl, 5 mM MgCl2, 1 mM EDTA, 0.5% (w/v) bovine serum albumin, pH 7.4. Compounds were present at various concentrations and the non specific binding was determined in the presence of 10 μM HU-210. After 1 hour incubation at 30° C., the suspension was rapidly filtered through 0.5% PEI pre-treated GF/B fiber filters on a 96-well harvester and washed 3 times with 3 ml ice-cold binding buffer without bovine serum albumin. Radioactivity on filters was measured with Wallac Winspectral 1414 counter by liquid scintillation in 6 ml Ecoscint H (National Diagnostics, U.K.). Assays were made in triplicates.
Binding data were analyzed by non-linear regression with the software GraphPad Prism Version 3.03.
The binding of the pyrazoline compounds of general formula I to CB1-receptors was determined according to the method described in the section Pharmacological Methods, Part I.

CB1-receptor [2] = molecular target: CB1-receptor (UniProt P20272); assay: as above; set-up: other: 10^−7 M; other: 10^−8 M; species or system human or rat
In short: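 Rat cerebellum membranes (male Wistar), 100 μg protein, competed against 1 nM [3H]-CP 55,940 in 50 mM Tris-HCl, 5 mM MgCl2, 1 mM EDTA, 0.5% BSA, pH 7.4; 1 h at 30 °C. Non-specific binding with 10 μM HU-210; filtration and scintillation counting, triplicates, non-linear regression.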

[3] = radioligand [3H]-CP55940, read-out: IC50

| Compound | IC50 (CB1-receptor [1]; [3]) | Inhibition (CB1-receptor [2]; 10^−7 M) | Inhibition (CB1-receptor [2]; 10^−8 M, in %) | IC50 (CB1-receptor [1]; radioligand [3H]-CP55940, hydrochloride, read-out: IC50) | IC50 (CB1-receptor [1]; radioligand [3H]-CP55940) |
| --- | --- | --- | --- | --- | --- |
| C[C@@H]1C(C(=O)N[C@H]2CCCC[C@@H]2O)=NN(c2ccc(Cl)cc2Cl)[C@@H]1c1ccc(Cl)cc1 (single isomer, unassigned) [Example 129] | 69 nM | 72.3% | 11.6 | – | – |
| C[C@@H]1C(C(=O)NN2CCCCC2)=NN(c2ccc(Cl)cc2Cl)[C@@H]1c1ccc(Cl)cc1 (single isomer, unassigned) [Example 419, (−)-cis-5-(4-chlorophenyl)-1-(2,4-dichlorophenyl)-4-methyl-N-(piperidin-1-yl)-4,5-dihydro-1H-pyrazole-3-carboxamide] | 54.3 nM | 57.1% | 27.8 | – | – |
| C[C@H]1C(C(=O)NN2CC3CCCC3C2)=NN(c2ccc(Cl)cc2Cl)[C@H]1c1ccc(Cl)cc1 (relative stereo) [Example 13, cis-5-(4-Chloro-phenyl)-1-(2,4-dichloro-phenyl)-4-methyl-4,5-dihydro-1H-pyrazole-3-carboxylic acid (hexahydro-cyclopenta[c]pyrrol-2-yl)-amide] | 25.1 nM | 70.6% | 27.6 | – | – |
| C[C@H]1C(C(=O)NN2CCCCCC2)=NN(c2ccc(Cl)cc2Cl)[C@H]1c1ccc(F)cc1.Cl (stereo in doubt) [Example 227, cis-N-(azepan-1-yl)-1-(2,4-dichlorophenyl)-5-(4-fluorophenyl)-4-methyl-4,5-dihydro-1H-pyrazole-3-carboxamide hydrochloride] | 122 nM | 65.3% | 15.3 | – | – |
| CC1CCCC(NC(=O)C2=NN(c3ccc(Cl)cc3Cl)[C@H](c3ccc(Cl)cc3)[C@@H]2C)C1 (relative stereo) [Example 423, cis-5-(4-chlorophenyl)-1-(2,4-dichlorophenyl)-4-methyl-N-(3-methylcyclohexyl)-4,5-dihydro-1H-pyrazole-3-carboxamide] | 45.5 nM | 66.7% | 33.1 | – | – |
| COc1ccc([C@H]2[C@@H](C)C(C(=O)NN3CC4CCCC4C3)=NN2c2ccc(Cl)cc2Cl)cc1.Cl (relative stereo) [Example 277, cis-1-(2,4-dichlorophenyl)-N-(hexahydrocyclopenta[c]pyrrol-2(1H)-yl)-5-(4-methoxyphenyl)-4-methyl-4,5-dihydro-1H-pyrazole-3-carboxamide hydrochloride] | 20 nM | 61.6% | 17.9 | – | – |
| C[C@@H]1C(C(=O)NC2CCCCCCC2)=NN(c2ccc(Cl)cc2Cl)[C@@H]1c1ccc(Cl)cc1 (relative stereo) [Example 119, cis-5-(4-chlorophenyl)-N-cyclooctyl-1-(2,4-dichlorophenyl)-4-methyl-4,5-dihydro-1H-pyrazole-3-carboxamide] | 51.4 nM | 73.7% | 19.5 | – | – |
| C[C@@H]1C(C(=O)NN2CCCCC2)=NN(c2ccc(Cl)cc2Cl)[C@@H]1c1ccc(Br)cc1.Cl (relative stereo) [Example 418, cis-5-(4-bromophenyl)-1-(2,4-dichlorophenyl)-4-methyl-N-(piperidin-1-yl)-4,5-dihydro-1H-pyrazole-3-carboxamide hydrochloride] | 36 nM | 62.6% | 19.9 | – | – |
| CC1CCCC(C)N1NC(=O)C1=NN(c2ccc(Cl)cc2Cl)[C@H](c2ccc(Cl)cc2)[C@@H]1C (relative stereo) [Example 103, cis-5-(4-chlorophenyl)-1-(2,4-dichlorophenyl)-N-(2,6-dimethylpiperidin-1-yl)-4-methyl-4,5-dihydro-1H-pyrazole-3-carboxamide] | 60.6 nM | 55.3% | 19.5 | – | – |
| C[C@H]1C(C(=O)NN2CCCCCC2)=NN(c2ccc(Cl)cc2Cl)[C@H]1c1ccc(Br)cc1.Cl (relative stereo) [Example 207, cis-N-(azepan-1-yl)-5-(4-bromophenyl)-1-(2,4-dichlorophenyl)-4-methyl-4,5-dihydro-1H-pyrazole-3-carboxamide hydrochloride] | 71 nM | 73% | 48.3 | – | – |
| COc1ccc([C@@H]2[C@H](C)C(C(=O)NN3CCCCC3)=NN2c2ccc(Cl)cc2Cl)cc1.Cl (relative stereo) [Example 265, cis-1-(2,4-dichlorophenyl)-5-(4-methoxyphenyl)-4-methyl-N-(piperidin-1-yl)-4,5-dihydro-1H-pyrazole-3-carboxamide hydrochloride] | – | 62% | 29.2 | 60 nM | – |
| C[C@H]1C(C(=O)NC2CCCCCC2)=NN(c2ccc(Cl)cc2Cl)[C@H]1c1ccc(F)cc1 (relative stereo) [Example 231, cis-N-cycloheptyl-1-(2,4-dichlorophenyl)-5-(4-fluorophenyl)-4-methyl-4,5-dihydro-1H-pyrazole-3-carboxamide] | 112 nM | 50.5% | 23.2 | – | – |
| C[C@H]1C(C(=O)NC2CCCCCC2)=NN(c2ccc(Cl)cc2Cl)[C@H]1c1ccc(Cl)cc1 (relative stereo) [Example 123, cis-5-(4-chlorophenyl)-N-cycloheptyl-1-(2,4-dichlorophenyl)-4-methyl-4,5-dihydro-1H-pyrazole-3-carboxamide] | 31.9 nM | 90.8% | 39.9 | – | – |
| CCOC(=O)C1=NN(c2ccc(Cl)cc2Cl)[C@@H](c2ccc(Cl)cc2)[C@@H]1C(F)(F)F (relative stereo) [Example 416, trans-ethyl 5-(4-chlorophenyl)-1-(2,4-dichlorophenyl)-4-(trifluoromethyl)-4,5-dihydro-1H-pyrazole-3-carboxylate] | 182 nM | 93.5% | 41 | – | – |
| COc1ccc([C@H]2[C@@H](C)C(C(=O)NC3CCCCCC3)=NN2c2ccc(Cl)cc2Cl)cc1 (relative stereo) [Example 275, cis-N-cycloheptyl-1-(2,4-dichlorophenyl)-5-(4-methoxyphenyl)-4-methyl-4,5-dihydro-1H-pyrazole-3-carboxamide] | – | 69.1% | 26.1 | – | 66 nM |
| COc1ccc([C@@H]2[C@H](C)C(C(=O)NN3CCCCC3)=NN2c2ccc(Cl)cc2Cl)cc1 (relative stereo) [Example 410, cis-1-(2,4-dichlorophenyl)-5-(4-methoxyphenyl)-4-methyl-N-(piperidin-1-yl)-4,5-dihydro-1H-pyrazole-3-carboxamide] | 82 nM | 58.1% | 42.4 | – | – |
| C[C@H]1C(C(=O)NC2CCCCCC2)=NN(c2ccc(Cl)cc2Cl)[C@H]1c1ccc(Br)cc1 (relative stereo) [Example 211, cis-5-(4-bromophenyl)-N-cycloheptyl-1-(2,4-dichlorophenyl)-4-methyl-4,5-dihydro-1H-pyrazole-3-carboxamide] | 30 nM | 69.8% | 37.2 | – | – |
